Eleven compounds from ChEMBL document CHEMBL1146116, “N-thiolated 2-oxazolidinones: a new family of antibacterial agents for methicillin-resistant Staphylococcus aureus and Bacillus anthracis” (2006) can be followed below.

SMILES strings stand for the structures. ≈ marks a conversion by molar mass, not a printed value.

Assay type in all cases: functional
Test [1] relates to Staphylococcus aureus. In words: Antibacterial activity against methicillin-resistant Staphylococcus aureus USF919 ATCC 43300 by agar disk diffusion method. Background: In agar diffusion tests the substance spreads into inoculated agar from a disc or well.
Test [2] has as its system Staphylococcus aureus. In words: Antibacterial activity against methicillin-resistant Staphylococcus aureus USF920 ATCC 33591 by agar disk diffusion method.
Test [3] concerns Staphylococcus aureus. In words: Antibacterial activity against Staphylococcus aureus 849 ATCC 25923 by agar disk diffusion method.
In test [4] the test system is Staphylococcus aureus. Nature of the test: Antibacterial activity against methicillin-resistant Staphylococcus aureus USF653 by agar disk diffusion method.
Test [5] deals with Staphylococcus aureus. In words: Antibacterial activity against methicillin-resistant Staphylococcus aureus USF654 by agar disk diffusion method.
The subject of test [6] is Staphylococcus aureus. Nature of the test: Antibacterial activity against methicillin-resistant Staphylococcus aureus USF655 by agar disk diffusion method.
For test [7], the system named is Staphylococcus aureus. Nature of the test: Antibacterial activity against methicillin-resistant Staphylococcus aureus USF656 by agar disk diffusion method.
In test [8] the test system is Staphylococcus aureus. In words: Antibacterial activity against methicillin-resistant Staphylococcus aureus USF657 by agar disk diffusion method.
Test [9] relates to Staphylococcus aureus. In words: Antibacterial activity against methicillin-resistant Staphylococcus aureus USF658 by agar disk diffusion method.
Test [10] relates to Staphylococcus aureus. In words: Antibacterial activity against methicillin-resistant Staphylococcus aureus USF659 by agar disk diffusion method.
For test [11], the system named is Staphylococcus aureus. Nature of the test: Antibacterial activity against methicillin-resistant Staphylococcus aureus USF652 by agar disk diffusion method.
The subject of a further test is Heyndrickxia coagulans. Nature of the test: Antibacterial activity against Bacillus coagulans by agar disk diffusion method.
Test [12] deals with Bacillus subtilis. In words: Antibacterial activity against Bacillus globigii by agar disk diffusion method.
For a further test, the system named is Bacillus thuringiensis. In words: Antibacterial activity against Bacillus thuringiensis by agar disk diffusion method.
For another test, the system named is Priestia megaterium. Nature of the test: Antibacterial activity against Bacillus megaterium by agar disk diffusion method.
Test [13] concerns Bacillus subtilis. Nature of the test: Antibacterial activity against Bacillus subtilis by agar disk diffusion method.
For a further test, the system named is Bacillus cereus. In words: Antibacterial activity against Bacillus cereus by agar disk diffusion method.
For test [14], the system named is Staphylococcus aureus. Nature of the test: Antibacterial activity against methicillin-resistant Staphylococcus aureus.
In test [15] the test system is Staphylococcus aureus. Nature of the test: Antibacterial activity against Staphylococcus aureus.

A word on the MIC: it is the lowest concentration found to suppress growth. A higher MIC goes with a need for much substance.

Turning to `CSN1C(=O)O[C@@H](CN=[N+]=[N-])[C@@H]1c1ccccc1`, the inhibition zone (IZ) in the test on Staphylococcus aureus [1] was found to be 32 mm; in the test on Staphylococcus aureus [2] it was 32 mm; in the test with Staphylococcus aureus [3], 31 mm; in the test with Staphylococcus aureus [4], 32 mm; in the test with Staphylococcus aureus [5], 30 mm; in the test with Staphylococcus aureus [6], 30 mm. Moreover, the inhibition zone (IZ) in the test with Staphylococcus aureus [7] amounted to 31 mm; in the test with Staphylococcus aureus [8], 30 mm; in the test with Staphylococcus aureus [9], 31 mm; with Staphylococcus aureus [10] it was 28 mm; in the test with Staphylococcus aureus [11], 30 mm.
For `COC(=O)[C@@H]1OC(=O)N(SC)[C@H]1c1ccccc1`, the inhibition zone (IZ) with Staphylococcus aureus [1] is 11 mm; with Staphylococcus aureus [2], 0 mm; in the test on Staphylococcus aureus [3], 16 mm; with Staphylococcus aureus [4], 19 mm; in the test with Staphylococcus aureus [5], 14 mm; with Staphylococcus aureus [6], 14 mm. Also, the inhibition zone (IZ) with Staphylococcus aureus [7] was found to be 15 mm; with Staphylococcus aureus [8], 12 mm; with Staphylococcus aureus [9], 14 mm; in the test on Staphylococcus aureus [10] it was 16 mm; in the test with Staphylococcus aureus [11], 12 mm.
For `CC1(C)S[C@@H]2[C@H](NC(=O)Cc3ccccc3)C(=O)N2[C@H]1C(=O)O` [PENICILLIN G], the inhibition zone (IZ) was found to be 33 mm with Staphylococcus aureus [3]; 15 mm in the test with Staphylococcus aureus [4]; 10 mm in the test with Staphylococcus aureus [5]; 14 mm in the test on Staphylococcus aureus [6]; 12 mm with Staphylococcus aureus [7]; 12 mm in the test with Staphylococcus aureus [8]. In addition, the inhibition zone (IZ) in the test on Staphylococcus aureus [9] worked out at 19 mm; in the test on Staphylococcus aureus [10], 16 mm; in the test with Staphylococcus aureus [11], 8 mm.
In the case of `CO[C@H]1C(=O)N(SC)[C@H]1c1ccccc1`, the inhibition zone (IZ) stood at 25 mm with Staphylococcus aureus [3]; 30 mm in the test on Staphylococcus aureus [4]; 26 mm with Staphylococcus aureus [5]; 25 mm in the test on Staphylococcus aureus [6]; 28 mm with Staphylococcus aureus [7]; 27 mm with Staphylococcus aureus [8]. The inhibition zone (IZ) in the test with Staphylococcus aureus [9] was 26 mm; in the test on Staphylococcus aureus [10] it was 24 mm; in the test on Staphylococcus aureus [11], 30 mm.
With `CSN1C(=O)OC[C@H]1C(C)C`, the inhibition zone (IZ) in the test on Heyndrickxia coagulans is 0 mm; with Staphylococcus aureus [1], 13 mm; with Staphylococcus aureus [2] it was 15 mm; in the test with Staphylococcus aureus [3] it was 21 mm; with Staphylococcus aureus [4], 25 mm; with Staphylococcus aureus [5] it was 20 mm. The inhibition zone (IZ) with Staphylococcus aureus [6] turned out to be 18 mm; with Staphylococcus aureus [7], 20 mm; in the test with Staphylococcus aureus [8], 19 mm; in the test on Staphylococcus aureus [9], 19 mm; with Staphylococcus aureus [10], 22 mm; with Bacillus subtilis [12], 17 mm. Moreover, the inhibition zone (IZ) in the test with Bacillus thuringiensis amounted to 0 mm; in the test with Priestia megaterium, 10 mm; with Bacillus subtilis [13], 19 mm; in the test with Bacillus cereus, 15 mm; in the test with Staphylococcus aureus [11], 12 mm.
`CSN1C(=O)OCC1Cc1ccccc1` (stereo not given): the inhibition zone (IZ) worked out at 19 mm in the test on Staphylococcus aureus [1]; 19 mm in the test on Staphylococcus aureus [2]; 17 mm with Staphylococcus aureus [3]; 20 mm in the test on Staphylococcus aureus [4]; 18 mm in the test on Staphylococcus aureus [5]; 17 mm with Staphylococcus aureus [6]. The inhibition zone (IZ) is 19 mm in the test on Staphylococcus aureus [7]; 19 mm in the test with Staphylococcus aureus [8]; 17 mm in the test on Staphylococcus aureus [9]; 19 mm in the test with Staphylococcus aureus [10]; 17 mm in the test with Staphylococcus aureus [11].
As to `CSN1CC(CCl)OC1=O` (stereo not given), the inhibition zone (IZ) in the test with Staphylococcus aureus [1] was found to be 20 mm; in the test with Staphylococcus aureus [2] it was 16 mm; in the test on Staphylococcus aureus [3] it was 21 mm; in the test on Staphylococcus aureus [4], 20 mm; in the test with Staphylococcus aureus [5], 20 mm; with Staphylococcus aureus [6], 20 mm. The inhibition zone (IZ) in the test with Staphylococcus aureus [7] turned out to be 22 mm; with Staphylococcus aureus [8], 21 mm; in the test on Staphylococcus aureus [9] it was 18 mm; in the test on Staphylococcus aureus [10], 19 mm; in the test on Staphylococcus aureus [11], 16 mm.
As to `CCC(C)SN1CC(CCl)OC1=O` (stereo not given), the inhibition zone (IZ) in the test with Staphylococcus aureus [1] was found to be 19 mm; in the test on Staphylococcus aureus [2], 19 mm; in the test with Staphylococcus aureus [3], 19 mm; in the test with Staphylococcus aureus [4], 20 mm; with Staphylococcus aureus [5] it was 22 mm; in the test with Staphylococcus aureus [6], 22 mm. Also, the inhibition zone (IZ) was 20 mm with Staphylococcus aureus [7]; 22 mm with Staphylococcus aureus [8]; 21 mm with Staphylococcus aureus [9]; 20 mm in the test with Staphylococcus aureus [10]; 19 mm in the test on Staphylococcus aureus [11].
For the compound `CSN1C(=O)OC[C@@H]1c1ccccc1`, the inhibition zone (IZ) came out at 17 mm with Heyndrickxia coagulans; 30 mm with Staphylococcus aureus [1]; 28 mm with Staphylococcus aureus [2]; 30 mm in the test with Staphylococcus aureus [3]; 31 mm with Staphylococcus aureus [4]; 29 mm in the test on Staphylococcus aureus [5]. Further, the inhibition zone (IZ) in the test on Staphylococcus aureus [6] stood at 29 mm; in the test on Staphylococcus aureus [7], 31 mm; in the test on Staphylococcus aureus [8] it was 29 mm; in the test with Staphylococcus aureus [9], 29 mm; with Staphylococcus aureus [10] it was 26 mm; in the test on Bacillus subtilis [12], 15 mm. Moreover, the inhibition zone (IZ) with Bacillus thuringiensis was determined as 17 mm; with Priestia megaterium it was 18 mm; in the test on Bacillus subtilis [13], 19 mm; with Bacillus cereus it was 24 mm; in the test with Staphylococcus aureus [11], 30 mm.
Regarding `CSN1C(=O)OC[C@@H]1C(C)C`, the inhibition zone (IZ) in the test with Heyndrickxia coagulans was 17 mm; in the test with Staphylococcus aureus [1] it was 21 mm; with Staphylococcus aureus [2] it was 18 mm; with Staphylococcus aureus [3], 20 mm; in the test with Staphylococcus aureus [4], 27 mm; in the test on Staphylococcus aureus [5], 23 mm. The inhibition zone (IZ) in the test with Staphylococcus aureus [6] was 22 mm; in the test on Staphylococcus aureus [7], 22 mm; in the test with Staphylococcus aureus [8] it was 22 mm; in the test on Staphylococcus aureus [9], 16 mm; in the test on Staphylococcus aureus [10], 22 mm; with Bacillus subtilis [12], 15 mm. Also, the inhibition zone (IZ) in the test on Bacillus thuringiensis is 16 mm; in the test on Priestia megaterium, 18 mm; in the test on Bacillus subtilis [13], 17 mm; with Bacillus cereus, 22 mm; in the test on Staphylococcus aureus [11], 19 mm. Besides, the MIC in the test on Staphylococcus aureus [14] and with Staphylococcus aureus [15] was 16 µg/mL (≈ 91.3 µM) in each case.
As for `CSN1C(=O)OC[C@H]1c1ccccc1`, the inhibition zone (IZ) with Heyndrickxia coagulans worked out at 17 mm; in the test on Staphylococcus aureus [1], 28 mm; in the test on Staphylococcus aureus [2], 28 mm; in the test on Staphylococcus aureus [3], 29 mm; in the test on Staphylococcus aureus [4], 30 mm; in the test on Staphylococcus aureus [5], 26 mm. Also, the inhibition zone (IZ) was 28 mm with Staphylococcus aureus [6]; 28 mm in the test on Staphylococcus aureus [7]; 27 mm in the test on Staphylococcus aureus [8]; 27 mm with Staphylococcus aureus [9]; 26 mm in the test with Staphylococcus aureus [10]; 17 mm in the test on Bacillus subtilis [12]. In addition, the inhibition zone (IZ) in the test with Bacillus thuringiensis was found to be 15 mm; with Priestia megaterium, 20 mm; in the test on Bacillus subtilis [13] it was 19 mm; with Bacillus cereus, 23 mm; with Staphylococcus aureus [11], 30 mm. Besides, the MIC in the test with Staphylococcus aureus [14] and against Staphylococcus aureus [15] was 8 µg/mL (≈ 38.2 µM) throughout.
